According to patent US20050090396A1, “Herbicides based on substituted carboxylic acid anilides” (priority 2001, published 2005):

How the values were obtained:
[1] = test system: Hordeum vulgare (winter barley); test: Post-emergence test/greenhouse, damage to winter barley (HORVW); assay type: in vivo
Experimental: (§1) Post-Emergence Test/Greenhouse
Test plants are grown under controlled conditions (temperature and light).
(§2) Following the spray application, the plant containers are kept in the greenhouse under constant light and temperature conditions.
(§3) After five days (5d) and/or three weeks (21d), the degree of damage to the plants is rated in % damage in comparison to the development of the untreated control.

[2] = test system: Triticum aestivum (winter wheat); test: Post-emergence test/greenhouse, damage to winter wheat (TRZAW); assay type: in vivo
Experimental: as §1
Test plants are grown under controlled conditions (temperature and light). Once the plants have reached a height of 5 to 15 cm, the test compound or the combination of test compounds is applied by spraying such that the particular amounts of active compound desired are applied per unit area. The concentration of the spray liquor is chosen so that the particular amounts of active compound desired are applied in 500 litres of water/ha.
as §2, §3
• 0%=no effect (like untreated control) • 100%=total destruction.
Unless indicated otherwise, the tests were carried out in the presence of 0.5% Renex 36. • a.i. denotes “active ingredient” (active compound). • HORVW denotes Hordeum vulgare (winter barley).
TRZAW denotes Triticum aestivum (winter wheat).

[3] = 50 g of ai/ha, without addition of Renex 36

## CCS(=O)(=O)N(C(=O)COc1ccc(Cl)cc1Cl)c1cc(-n2c(=O)cc(C(F)(F)F)n(C)c2=O)c(F)cc1C#N [Ex. I-1]
[1]; 30 g of ai/ha, 0.5% Renex 36
  degree of damage to the plants, HORVW 21d: 20%
[1]; 60 g of ai/ha, 0.5% Renex 36
  degree of damage to the plants, HORVW 21d: 40%

## CCS(=O)(=O)N(C(=O)CCc1ccc(Cl)c(Cl)c1)c1cc(-n2c(=O)cc(C(F)(F)F)n(C)c2=O)c(F)cc1C#N [Ex. I-2]
[1]; 30 g of ai/ha, 0.5% Renex 36
  degree of damage to the plants, HORVW 5d: 40%
[1]; 60 g of ai/ha, 0.5% Renex 36
  degree of damage to the plants, HORVW 5d: 60%

## CCS(=O)(=O)N(C(=O)CCc1ccc(Cl)c(Cl)c1)c1cc(-n2ncc(=O)n(C)c2=O)c(F)cc1C#N [Ex. I-14]
[1]; 60 g of ai/ha, 0.5% Renex 36
  degree of damage to the plants, HORVW 5d: 30%
[2]; 60 g of ai/ha, 0.5% Renex 36
  degree of damage to the plants, TRZAW 5d: 20%

## CCS(=O)(=O)N(C(=O)CCc1cccc(OC)c1)c1cc(-n2c(=O)cc(C(F)(F)F)n(C)c2=O)c(F)cc1C#N [Ex. I-24]
[1]; 15 g of ai/ha, 0.5% Renex 36
  degree of damage to the plants, HORVW 5d: 40%
[1]; 30 g of ai/ha, 0.5% Renex 36
  degree of damage to the plants, HORVW 5d: 60%
[1]; 60 g of ai/ha, 0.5% Renex 36
  degree of damage to the plants, HORVW 5d: 70%

## Cn1c(C(F)(F)F)cc(=O)n(-c2cc(N(C(=O)CCc3ccc(F)c(F)c3)S(C)(=O)=O)c(C#N)cc2F)c1=O [Ex. I-26]
[1]; 15 g of ai/ha, 0.5% Renex 36
  degree of damage to the plants, HORVW 21d: 10%
[1]; 30 g of ai/ha, 0.5% Renex 36
  degree of damage to the plants, HORVW 21d: 20%
[1]; 60 g of ai/ha, 0.5% Renex 36
  degree of damage to the plants, HORVW 21d: 40%
[2]; 30 g of ai/ha, 0.5% Renex 36
  degree of damage to the plants, TRZAW 21d: 20%
[2]; 60 g of ai/ha, 0.5% Renex 36
  degree of damage to the plants, TRZAW 21d: 30%

## CCS(=O)(=O)N(C(=O)C(C)=Cc1ccccc1)c1cc(-n2c(=O)cc(C(F)(F)F)n(C)c2=O)c(F)cc1C#N [Ex. I-29]
[1]; 15 g of ai/ha, 0.5% Renex 36
  degree of damage to the plants, HORVW 5d: 10%

## CCS(=O)(=O)N(C(=O)C=Cc1ccccc1Cl)c1cc(-n2c(=O)cc(C(F)(F)F)n(C)c2=O)c(F)cc1C#N [Ex. I-31]
[1]; 15 g of ai/ha, 0.5% Renex 36
  degree of damage to the plants, HORVW 5d: 30%
[1]; 30 g of ai/ha, 0.5% Renex 36
  degree of damage to the plants, HORVW 5d: 40%
[1]; 60 g of ai/ha, 0.5% Renex 36
  degree of damage to the plants, HORVW 5d: 50%
[2]; 30 g of ai/ha, 0.5% Renex 36
  degree of damage to the plants, TRZAW 5d: 20%
[2]; 60 g of ai/ha, 0.5% Renex 36
  degree of damage to the plants, TRZAW 5d: 20%

## Cn1c(C(F)(F)F)cc(=O)n(-c2cc(N(C(=O)C=Cc3ccccc3Cl)S(C)(=O)=O)c(C#N)cc2F)c1=O [Ex. I-32]
[1]; 30 g of ai/ha, 0.5% Renex 36
  degree of damage to the plants, HORVW 5d: 25%
[1]; 60 g of ai/ha, 0.5% Renex 36
  degree of damage to the plants, HORVW 5d: 40%

## CCS(=O)(=O)N(C(=O)CCc1cccc(Cl)c1)c1cc(-n2c(=O)cc(C(F)(F)F)n(C)c2=O)c(F)cc1C#N [Ex. I-33]
[1]; 60 g of ai/ha, 0.5% Renex 36
  degree of damage to the plants, HORVW 5d: 40%
  degree of damage to the plants, HORVW 21d: 20%
[1]; 30 g of ai/ha, 0.5% Renex 36
  degree of damage to the plants, HORVW 21d: 15%
[2]; 60 g of ai/ha, 0.5% Renex 36
  degree of damage to the plants, TRZAW 5d: 25%
  degree of damage to the plants, TRZAW 21d: 15%
[2]; 30 g of ai/ha, 0.5% Renex 36
  degree of damage to the plants, TRZAW 21d: 10%

## CCS(=O)(=O)N(C(=O)CC(C)c1ccccc1)c1cc(-n2ncc(=O)n(C)c2=O)c(F)cc1C#N (stereo not shown) [Ex. I-40]
[1]; 60 g of ai/ha, 0.5% Renex 36
  degree of damage to the plants, HORVW 5d: 30%
  degree of damage to the plants, HORVW 21d: 20%
[2]; 60 g of ai/ha, 0.5% Renex 36
  degree of damage to the plants, TRZAW 5d: 20%

## CCS(=O)(=O)N(C(=O)CCc1cccc(OC)c1)c1cc(-n2ncc(=O)n(C)c2=O)c(F)cc1C#N [Ex. I-41]
[1]; 15 g of ai/ha, 0.5% Renex 36
  degree of damage to the plants, HORVW 5d: 20%
[1]; 30 g of ai/ha, 0.5% Renex 36
  degree of damage to the plants, HORVW 5d: 25%

## CCS(=O)(=O)N(C(=O)CCc1ccc(F)c(F)c1)c1cc(-n2ncc(=O)n(C)c2=O)c(F)cc1C#N [Ex. I-42]
[1]; 15 g of ai/ha, 0.5% Renex 36
  degree of damage to the plants, HORVW 5d: 15%
[1]; 30 g of ai/ha, 0.5% Renex 36
  degree of damage to the plants, HORVW 5d: 20%
[1]; 60 g of ai/ha, 0.5% Renex 36
  degree of damage to the plants, HORVW 5d: 30%
  degree of damage to the plants, HORVW 21d: 20%

## CCS(=O)(=O)N(C(=O)CCc1ccc(F)cc1F)c1cc(-n2ncc(=O)n(C)c2=O)c(F)cc1C#N [Ex. I-43]
[1]; 15 g of ai/ha, without addition of Renex 36
  degree of damage to the plants, HORVW 21d: 10%
[2]; 15 g of ai/ha, 0.5% Renex 36
  degree of damage to the plants, TRZAW 5d: 15%
[2]; 30 g of ai/ha, 0.5% Renex 36
  degree of damage to the plants, TRZAW 5d: 15%

## CCCCCC(C)OC(=O)COc1ccc(Cl)c2cccnc12 (stereo not shown) [cloquintocet-mexyl, 1-methylhexyl 5-chloroquinolin-8-oxyacetate, reference compound]
[1]; 50 g of ai/ha, 0.5% Renex 36
  degree of damage to the plants, HORVW 5d: 0%
  degree of damage to the plants, HORVW 21d: 0%
[1]; [3]
  degree of damage to the plants, HORVW 5d: 0%
  degree of damage to the plants, HORVW 21d: 0%
[2]; 50 g of ai/ha, 0.5% Renex 36
  degree of damage to the plants, TRZAW 5d: 0%
  degree of damage to the plants, TRZAW 21d: 0%
[2]; [3]
  degree of damage to the plants, TRZAW 5d: 0%

## CCOC(=O)C1=NOC(c2ccccc2)(c2ccccc2)C1 [isoxadifen, ethyl 4,5-dihydro-5,5-diphenyl-3-isoxazolecarboxylate, reference compound]
[1]; 50 g of ai/ha, 0.5% Renex 36
  degree of damage to the plants, HORVW 5d: 0%
  degree of damage to the plants, HORVW 21d: 0%
[1]; [3]
  degree of damage to the plants, HORVW 5d: 0%
  degree of damage to the plants, HORVW 21d: 0%
[2]; 50 g of ai/ha, 0.5% Renex 36
  degree of damage to the plants, TRZAW 5d: 0%
  degree of damage to the plants, TRZAW 21d: 0%
[2]; [3]
  degree of damage to the plants, TRZAW 5d: 0%

## CCOC(=O)C1=NN(c2ccc(Cl)cc2Cl)C(C)(C(=O)OCC)C1 (stereo not shown) [mefenpyr-diethyl, diethyl 1-(2,4-dichlorophenyl)-4,5-dihydro-5-methyl-1H-pyrazole-3,5-dicarboxylate, reference compound]
[1]; 50 g of ai/ha, 0.5% Renex 36
  degree of damage to the plants, HORVW 5d: 0%
  degree of damage to the plants, HORVW 21d: 0%
[2]; 50 g of ai/ha, 0.5% Renex 36
  degree of damage to the plants, TRZAW 5d: 0%
  degree of damage to the plants, TRZAW 21d: 0%
